Results on one molecule are retold here after publication PMC10892836, “Hybrid Molecules of Azithromycin with Chloramphenicol and Metronidazole: Synthesis and Study of Antibacterial Properties” (Pharmaceuticals, 2024).

Usually MIC stands for the lowest concentration found to suppress growth.

Assay type in all cases: cell-based
Test [1] relates to Escherichia coli ATCC 25922. Briefly: MIC, broth microdilution (CLSI). The following applies: ATCC25922, E. coli ATCC 25922. The procedure:
(§1) Minimum inhibitory concentration (MIC) values for facultative anaerobic bacteria were determined using the broth microdilution method outlined in the CLSI guidelines. Initially, all compounds were dissolved in dimethyl sulfoxide (DMSO) to achieve a concentration of 10 mg/mL. Subsequently, they were diluted with the Mueller–Hinton nutrient broth (MHB) supplemented with 5% defibrinated horse blood (for Streptococcus spp.) to a concentration of 64 μg/mL. Following 2-fold serial dilutions of the substances, bacterial cultures in the log growth phase were added to 96-well plates at a concentration of 2.5–5 × 10^5 CFU/mL, and the plates were incubated at 37 °C for 16–20 h.
(§2) Minimum inhibitory concentration (MIC) was defined as the lowest concentration of a chemical compound that inhibits the visible growth of the bacterial strain. At least three replicates of MIC measurements were performed.
For orientation: In broth dilution the organism is exposed to a series of concentrations in liquid medium.

Test [2] deals with Staphylococcus aureus ATCC 29213. Briefly: MIC, broth microdilution (CLSI). The following applies: ATCC29213, S. aureus ATCC 29213. Here is the method: as §1, §2
The subject of test [3] is Streptococcus agalactiae 1Cp. The test is described as follows: MIC, broth microdilution (CLSI). Conditions: S. agalactiae 1Cp. Here is the method: as §1, §2
In test [4] the test system is Streptococcus pneumoniae ATCC 49619. Briefly: MIC, broth microdilution (CLSI). The procedure:
as §1, §2

Test [5] concerns Clostridium sporogenes ATCC 19404. Briefly: MIC, agar dilution, anaerobic bacteria (CLSI M11-A9). Conditions: ATCC19404, C. sporogenes ATCC 19404, anaerobic. The procedure: The antimicrobial activity against anaerobic bacteria was evaluated using the agar dilution method in accordance with the CLSI document M11-A9 [58]. Twofold serial dilutions of compounds, at 10 times the desired concentration, were prepared in water and diluted (1:10) with the Brucella Agar medium containing 5% defibrinated horse blood, 5 mg/L hemin, and 1 mg/L vitamin K. The resulting plates were inoculated with approximately 10^5 CFU per spot using a replicator and incubated anaerobically at 36 °C for 48 h.
as §2
In general terms: In agar dilution, organisms are placed on agar that contains the substance at set levels.

A further test deals with E. coli ΔtolC. Briefly: MIC, broth microdilution, E. coli ΔtolC panel. Conditions: Escherichia coli.
Excerpt: The E. coli JW5503 strain with a deletion of the tolC gene (referred to here as E. coli ΔtolC) was kindly provided by Prof. Hironori Niki, National Institute of Genetics, Japan. The E. coli BW25113 strain with a partial deletion of the lptD gene, codons 330 to 352 (referred to here as E. coli lptD^mut) was kindly provided by Prof. Alexander S. Mankin, University of Illinois, Chicago, IL, USA [44]. The E. coli ΔtolC strain was transformed with the pDualrep2 (Amp^R) plasmid, whereas the E. coli lptD^mut strain was transformed with the pDualrep2 (Kan^R) plasmid (not yet published). Both E. coli strains were grown at 37 °C in Luria–Bertani (LB) medium supplemented with either 100 μg/mL ampicillin or 50 μg/mL kanamycin.
MIC values for a panel of E. coli ΔtolC strains were determined via the broth microdilution assay as described here with minor modifications. Briefly, the overnight E. coli culture was diluted to an OD600 of 0.01 in the fresh LB medium supplied with 100 μg/mL ampicillin, if required. Then, the cells were additionally incubated for 1–1.5 h at 37 °C with shaking at 200 rpm (Shaker-Incubator ES-20/80, BioSan, Riga, Latvia). Meanwhile, 100 μL of the liquid growth medium was placed in each well of a 96-well sterile plate (200 μL was placed in column 1). Solutions of tested compounds were added in the first column of the plate at 2 times the final concentration of 200 μg/mL. Then, 2-fold serial dilutions were performed. Immediately before use, bacterial inoculum was diluted (1:100) in the growth medium, and 100 μL of it was transferred in each well except for the sterility control column. The plate was incubated overnight (16–20 h) at 37 °C with constant shaking at 200 rpm (Shaker-Incubator ES-20/80, BioSan, Riga Latvia). Cell growth was assessed by scanning the OD600 with a VICTOR X5 Multilabel Plate Reader (PerkinElmer, Waltham, MA, USA).
as §2

The subject of test [6] is Streptococcus pneumoniae ATCC 6305. Briefly: MIC, broth microdilution (CLSI). The following applies: ATCC6305, S. pneumoniae ATCC 6305, Table S3. The procedure: To evaluate the antimicrobial activity of hybrid molecules, clinical and reference strains obtained from the Laboratory of Medical Microbiology of the State Scientific Center of Antibiotics (Moscow, Russia) were used. The activity of azithromycin derivatives conjugated with chloramphenicol was tested on the following reference strains: Streptococcus pneumoniae ATCC 49619, Staphylococcus aureus ATCC 29213, and Escherichia coli ATCC 25922. Additionally, azithromycin derivatives conjugated with metronidazole were tested on the Streptococcus agalactiae 1Cp strain, Streptococcus pneumoniae ATCC 6305 strain (see Table S3, Supplementary Materials), on the anaerobic Gram-positive Clostridium sporogenes ATCC 19404 strain, and Propionibacterium acnes 55 clinical isolate.
Minimum inhibitory concentration (MIC) values for facultative anaerobic bacteria were determined using the broth microdilution method outlined in the CLSI guidelines. Initially, all compounds were dissolved in dimethyl sulfoxide (DMSO) to achieve a concentration of 10 mg/mL. Subsequently, they were diluted with the Mueller–Hinton nutrient broth (MHB) supplemented with 5% defibrinated horse blood (for Streptococcus spp.) to a concentration of 64 μg/mL. […]

SMILES strings stand for the structures. Converted amounts (≈) assume the structure as drawn.

Consider `CC[C@H]1OC(=O)[C@H](C)[C@@H](O[C@H]2C[C@@](C)(OC)[C@@H](O)[C@H](C)O2)[C@H](C)[C@@H](O[C@@H]2O[C@H](C)C[C@H](N(C)C)[C@H]2O)[C@](C)(O)C[C@@H](C)CN(C)[C@H](C)[C@@H](O)[C@]1(C)O` [AZT, azithromycin], for which the MIC was 2 mg/L (≈ 2.67 µM) in test [1]; 0.5 mg/L (≈ 0.668 µM) in test [2]; 0.015 mg/L (≈ 0.02 µM) in test [3] (Table 3); 0.03 mg/L in test [3] (Table S3, comparison with 2′-O-deacetyl metabolites); 0.03 mg/L in test [4] (ATCC49619, S. pneumoniae ATCC 49619, Table S3, comparison with 2′-O-deacetyl metabolites); 0.06 mg/L (≈ 0.0801 µM) in test [4] (ATCC49619, S. pneumoniae ATCC 49619, Tables 2 and 3). In addition, the MIC in test [5] was 4 mg/L (≈ 5.34 µM); against E. coli ΔtolC, 0.8 mg/L (≈ 1.07 µM); in test [6], 0.03 mg/L (≈ 0.0401 µM).
